Experimental data published in ChEMBL document CHEMBL3244110, “Synthesis and biological evaluation of some 2-amino-4-aryl-3H-1,5-benzodiazepine analogues of clozapine” (J Med Chem, 1978).
Calls of active or inactive are those of the source. No cut-off for these calls is given here.

Assays:
Rattus norvegicus [1] = experiment: Antipsychotic activity in 0.2 mA footshock-induced conditioned stimulus rat assessed as decrease in avoidance response at 5 mg/kg, ip after 30 mins; assay type: functional, organism-based; parameters: dose 5 mg/kg
Mus musculus [2] = experiment: Antipsychotic activity in mouse assessed as protection against amphetamine-induced lethality at 50 mg/kg, ip treated 30 mins before amphetamine challenge; assay type: functional, organism-based; parameters: dose 50 mg/kg
Mus musculus [3] = experiment: Antipsychotic activity in mouse assessed as increase in brain dopamine turnover at 25 to 30 mg/kg, ip pretreated with 200 mg/kg, ip alpha-methyl-p-tyrosine tyrosine hydroxylase inhibitor; assay type: functional, organism-based
Mus musculus [4] = experiment: Toxicity in mouse assessed as ptosis at 30 mg/kg, ip; assay type: organism-based; parameters: dose 30 mg/kg, route intraperitoneal; conditions: in vivo
Mus musculus [5] = experiment: Antipsychotic activity in mouse assessed as protection against amphetamine-induced lethality at 5 mg/kg, ip treated 30 mins before amphetamine challenge; assay type: functional, organism-based; parameters: dose 5 mg/kg
Rattus norvegicus [6] = experiment: Antipsychotic activity in 0.2 mA footshock-induced conditioned stimulus rat assessed as decrease in avoidance response at 20 mg/kg, ip after 30 mins; assay type: functional, organism-based; parameters: dose 20 mg/kg

**Q.** `Clc1ccc(C2CCN(C3=Nc4ccccc4N=C(c4ccccc4)C3)CC2)cc1` was tested. Which Activity (Rattus norvegicus [1]) did it give?
**A.** inactive

**Q.** What about the Activity (Mus musculus [2]) of the same molecule?
**A.** inactive

**Q.** And the Activity (Mus musculus [3])?
**A.** inactive

**Q.** And the Activity (Mus musculus [4])?
**A.** Toxic

**Q.** And the Activity (Mus musculus [5])?
**A.** Active

**Q.** And the Activity (Rattus norvegicus [6])?
**A.** inactive
